Reference: patent US7928098B2, “Therapeutic and/or preventive agents for a sleep disorder” (Kyowa Hakko Kirin Co., Ltd., priority 2005, dated 2011)

melting point | Structure (SMILES)
246 to 249 °C | CC(O)c1cc2cc(C(=O)Nc3nc(-c4ccco4)c(C(=O)c4ccccn4)s3)ccc2o1 (stereo not drawn) [Compound 154, N-[4-(2-Furyl)-5-(pyridin-2-ylcarbonyl)thiazol-2-yl]-2-(1-hydroxyethyl)-1-benzofuran-5-carboxamide]
277 to 281 °C | CCn1ccc(C(=O)c2sc(NC(=O)c3ccncc3)nc2-c2ccco2)cc1=O [Compound 276, N-[5-(1-Ethyl-2-oxo-1,2-dihydropyridin-4-ylcarbonyl)-4-(2-furyl)thiazol-2-yl]pyridine-4-carboxamide]
185 to 186 °C | O=C(Nc1nc(-c2ccco2)c(C(=O)C2CCOCC2)s1)c1ccccn1 [Compound 412, N-[4-(2-Furyl)-5-(tetrahydropyran-4-ylcarbonyl)thiazol-2-yl]pyridine-2-carboxamide]
230 to 232 °C (dec.) | Cc1ccc(C(=O)c2sc(NC(=O)c3ccncc3)nc2-c2ccco2)cn1 [Compound 220, N-[4-(2-Furyl)-5-(2-methylpyridin-5-ylcarbonyl)thiazol-2-yl]pyridine-4-carboxamide]
103 to 104 °C | O=C(c1ccccn1)c1sc(NC(=O)C2COc3ccccc3O2)nc1-c1ccco1 (stereo not drawn) [Compound 119, N-[4-(2-Furyl)-5-(pyridin-2-ylcarbonyl)thiazol-2-yl]-1,4-benzodioxane-2-carboxamide]
265 to 282 °C (dec.) | O=C(Nc1nc(-c2ccco2)c(C(=O)c2ccc(=O)n(Cc3ccccc3)c2)s1)c1ccncc1 [Compound 271, N-[5-(1-Benzyl-2-oxo-1,2-dihydropyridin-5-ylcarbonyl)-4-(2-furyl)thiazol-2-yl]pyridine-4-carboxamide]
206 to 212 °C | O=C1CCC(C(=O)c2sc(NC(=O)c3ccncc3)nc2-c2ccco2)CC1 [Compound 353, N-[4-(2-Furyl)-5-(4-oxocyclohexylcarbonyl)thiazol-2-yl]-pyridine-4-carboxamide]
197 to 209 °C | Cc1ccc(C(=O)c2sc(NC(=O)c3ccco3)nc2-c2ccco2)cn1 [Compound 222, N-[4-(2-Furyl)-5-(2-methylpyridin-5-ylcarbonyl)thiazol-2-yl]furan-2-carboxamide]
148 to 150 °C | O=C(COc1ccccc1)Nc1nc(-c2ccco2)c(C(=O)C2CCOCC2)s1 [Compound 434, N-[4-(2-Furyl)-5-(tetrahydropyran-4-ylcarbonyl)thiazol-2-yl]-2-phenoxyacetamide]
162 to 163 °C | O=C(Nc1nc(-c2ccco2)c(C(=O)c2ccccn2)s1)OC1CCCC1 [Compound 160, Cyclopentyl N-[4-(2-furyl)-5-(pyridin-2-ylcarbonyl)thiazol-2-yl]carbamate]
194 to 195 °C | O=C(Nc1nc(-c2ccco2)c(C(=O)C2CCOCC2)s1)c1ccc(CN2CCC(O)CC2)cc1 [Compound 386, N-[4-(2-Furyl)-5-(tetrahydropyran-4-ylcarbonyl)thiazol-2-yl]-4-(4-hydroxypiperidinomethyl)benzamide]
257 to 260 °C | N#Cc1cccc(C(=O)Nc2nc(-c3ccco3)c(C(=O)C3CCOCC3)s2)c1 [Compound 378, 3-Cyano-N-[4-(2-furyl)-5-(tetrahydropyran-4-ylcarbonyl)-thiazol-2-yl]benzamide]
176 to 178 °C | O=C(CNC12CC3CC(CC(O)(C3)C1)C2)Nc1nc(-c2ccco2)c(C(=O)C2CCOCC2)s1 [Compound 483, N-[4-(2-Furyl)-5-(tetrahydropyran-4-ylcarbonyl)thiazol-2-yl]-2-(3-hydroxyadamantan-1-ylamino)acetamide]
225 to 230 °C (dec.) | O=C(Nc1nc(-c2ccco2)c(C(=O)C2CC2)s1)c1ccncc1 [Compound 323, N-[5-(Cyclopropylcarbonyl)-4-(2-furyl)thiazol-2-yl]pyridine-4-carboxamide]
177 to 180 °C | O=C(Nc1nc(-c2ccco2)c(C(=O)C2CCOCC2)s1)c1ccc(OC(F)(F)F)cc1 [Compound 382, N-[4-(2-Furyl)-5-(tetrahydropyran-4-ylcarbonyl)thiazol-2-yl]-4-(trifluoromethoxy)benzamide]
148 to 149 °C | O=C(CN1CCSCC1)Nc1nc(-c2ccco2)c(C(=O)c2ccccn2)s1 [Compound 190, N-[4-(2-Furyl)-5-(pyridin-2-ylcarbonyl)thiazol-2-yl]-2-thiomorpholinoacetamide]
108 to 110 °C | O=C(c1sc(NC(=O)N2CCOCC2)nc1-c1ccco1)C1CCCC1 [Compound 340, N-[5-(Cyclopentylcarbonyl)-4-(2-furyl)thiazol-2-yl]morpholine-4-carboxamide]
200 to 205 °C | O=C(Nc1nc(-c2ccco2)c(C(=O)C2CCC2)s1)C1CC1 [Compound 333, N-[5-(Cyclobutylcarbonyl)-4-(2-furyl)thiazol-2-yl]cyclopropanecarboxamide]
177 to 179 °C | O=C(CN1CCC(N2CCCCC2)CC1)Nc1nc(-c2ccco2)c(C(=O)C2CCOCC2)s1 [Compound 457, N-[4-(2-Furyl)-5-(tetrahydropyran-4-ylcarbonyl)thiazol-2-yl]-2-(4-piperidinopiperidino)acetamide]
199 to 200 °C | O=C(CN1CCN(c2ncccn2)CC1)Nc1nc(-c2ccco2)c(C(=O)c2ccccn2)s1 [Compound 186, N-[4-(2-Furyl)-5-(pyridin-2-ylcarbonyl)thiazol-2-yl]-2-[4-(2-pyrimidinyl)piperazin-1-yl]acetamide]

melting point | Structure (SMILES)
294 to 295 °C | Cn1cc(C(=O)c2sc(NC(=O)c3ccncc3)nc2-c2ccco2)ccc1=O [Compound 267, N-[4-(2-Furyl)-5-(1-methyl-2-oxo-1,2-dihydropyridin-5-ylcarbonyl)thiazol-2-yl]pyridine-4-carboxamide]
254 to 258 °C | O=C(Nc1nc(-c2ccco2)c(C(=O)c2ccccn2)s1)c1cc(Cl)nc(Cl)c1 [Compound 124, 2,6-Dichloro-N-[4-(2-furyl)-5-(pyridin-2-ylcarbonyl)thiazol-2-yl]pyridine-4-carboxamide]
152 to 153 °C | O=C(Nc1nc(-c2ccco2)c(C(=O)c2ccccn2)s1)OC1CCC1 [Compound 159, Cyclobutyl N-[4-(2-furyl)-5-(pyridin-2-ylcarbonyl)thiazol-2-yl]carbamate]
231 to 233 °C | O=C(c1cccnc1)c1sc(NC(=O)C2CC2)nc1-c1ccco1 [Compound 212, N-[4-(2-Furyl)-5-(pyridin-3-ylcarbonyl)thiazol-2-yl]cyclopropanecarboxamide]
170 to 180 °C (dec.) | O=C(Nc1nc(-c2ccco2)c(C(=O)c2ccccn2)s1)c1cc[nH]c(=O)c1 [Compound 139, N-[4-(2-Furyl)-5-(pyridin-2-ylcarbonyl)thiazol-2-yl]-2-oxo-1,2-dihydropyridine-4-carboxamide]
211 to 212 °C | N#Cc1ccc(C(=O)Nc2nc(-c3ccco3)c(C(=O)C3CCC(=O)CC3)s2)cc1 [Compound 357, 4-Cyano-N-[4-(2-furyl)-5-(4-oxocyclohexylcarbonyl)-thiazole-2-yl]benzamide]
221 to 222 °C | O=C(Nc1nc(-c2ccco2)c(C(=O)C2CCOCC2)s1)c1ccccc1 [Compound 362, N-[4-(2-Furyl)-5-(tetrahydropyran-4-ylcarbonyl)thiazol-2-yl]benzamide]
187 to 189 °C | O=C(Nc1nc(-c2ccco2)c(C(=O)c2ccccn2)s1)c1ccoc1 [Compound 146, N-[4-(2-Furyl)-5-(pyridin-2-ylcarbonyl)thiazol-2-yl]furan-3-carboxamide]
206 to 209 °C | O=C(CC1CCOCC1)Nc1nc(-c2ccco2)c(C(=O)C2CCOCC2)s1 [Compound 430, N-[4-(2-Furyl)-5-(tetrahydropyran-4-ylcarbonyl)thiazol-2-yl]-2-(tetrahydropyran-4-yl)acetamide]
189 to 191 °C | O=C(Nc1nc(-c2ccco2)c(C(=O)c2ccccn2)s1)c1ccc2c(c1)OCCO2 [Compound 118, N-[4-(2-Furyl)-5-(pyridin-2-ylcarbonyl)thiazol-2-yl]-1,4-benzodioxane-6-carboxamide]
149 to 150 °C | O=C(CN1CCC(N2CCOCC2)CC1)Nc1nc(-c2ccco2)c(C(=O)c2ccccn2)s1 [Compound 179, N-[4-(2-Furyl)-5-(pyridin-2-ylcarbonyl)thiazol-2-yl]-2-(4-morpholinopiperidino)acetamide]
243 to 255 °C (dec.) | Cn1ccc(C(=O)c2sc(NC(=O)c3ccncc3)nc2-c2ccco2)cc1=O [Compound 274, N-[4-(2-Furyl)-5-(1-methyl-2-oxo-1,2-dihydropyridin-4-ylcarbonyl)thiazol-2-yl]pyridine-4-carboxamide]
160 to 162 °C | O=C(Nc1nc(-c2ccco2)c(C(=O)C2CCOCC2)s1)c1ccccc1Cl [Compound 374, 2-Chloro-N-[4-(2-furyl)-5-(tetrahydropyran-4-ylcarbonyl)-thiazol-2-yl]benzamide]
261 to 265 °C | Cc1ccc(C(=O)c2sc(NC(=O)c3ccc(C#N)cc3)nc2-c2ccco2)cn1 [Compound 221, 4-Cyano-N-[4-(2-furyl)-5-(2-methylpyridin-5-ylcarbonyl)thiazol-2-yl]benzamide]
180 to 185 °C | CCN(CC)C(=O)C1CCCN(CC(=O)Nc2nc(-c3ccco3)c(C(=O)c3ccccn3)s2)C1.Cl (stereo not drawn)
217 to 231 °C | O=C(Nc1nc(-c2ccco2)c(C(=O)c2ccoc2)s1)c1ccncc1 [Compound 253, N-[4-(Furan-2-yl)-5-(furan-3-ylcarbonyl)thiazol-2-yl]pyridine-4-carboxamide]
227 to 235 °C (dec.) | O=C(Nc1nc(-c2ccco2)c(C(=O)C2CCC2)s1)c1ccncc1 [Compound 330, N-[5-(Cyclobutylcarbonyl)-4-(2-furyl)thiazol-2-yl]pyridine-4-carboxamide]
213 to 215 °C | O=C(Nc1nc(-c2ccco2)c(C(=O)C2CCOCC2)s1)c1ccc(F)cc1F [Compound 395, 2,4-Difluoro-N-[4-(2-furyl)-5-(tetrahydropyran-4-ylcarbonyl)thiazol-2-yl]benzamide]
172 to 188 °C | O=C(CN1CCN(C2CCOCC2)CC1)Nc1nc(-c2ccco2)c(C(=O)c2ccccn2)s1 [Compound 187, N-[4-(2-Furyl)-5-(pyridin-2-ylcarbonyl)thiazol-2-yl]-2-[4-(tetrahydropyran-4-yl)piperazin-1-yl]acetamide]
